Where two headings read alike, the source gives them in different places.
Tested on: ASAT1H (SqASAT1H; c39979_g2_i1)
Assay: LC-MS/MS product formation, Michaelis-Menten fit
Format: biochemical, Solanum quitoense
Settings: read-out: apparent Km, 30 °C, pH 6 (default), 20 min

Row | Km (myo-inositol saturating) | Km (nC10-CoA saturating) | Structure (SMILES)
1 | 9.5 ± 2.4 µM | – | CCCCCCCCCC(=O)SCCNC(=O)CCNC(=O)[C@H](O)C(C)(C)COP(=O)(O)OP(=O)(O)OC[C@H]1O[C@@H](n2cnc3c(N)ncnc32)[C@H](O)[C@@H]1OP(=O)(O)O [nC10-CoA]
2 | 16.6 ± 6.6 µM | – | CCCCCCCCCCCC(=O)SCCNC(=O)CCNC(=O)[C@H](O)C(C)(C)COP(=O)(O)OP(=O)(O)OC[C@H]1O[C@@H](n2cnc3c(N)ncnc32)[C@H](O)[C@@H]1OP(=O)(O)O [nC12-CoA]
3 | – | 4400 ± 1100 µM | O[C@H]1[C@H](O)[C@@H](O)[C@H](O)[C@@H](O)[C@H]1O [myo-inositol]
